Results on twelve molecules are retold here after ChEMBL document CHEMBL1201862, “PubChem BioAssay data set” (2004).

Common to all, as to experiment: inhibition of tumour cell growth, NCI panel, 48 h
In assay [1] the test system is A549.
Assay [2] concerns HCT-15.
Assay [3] has as its system HL-60.
Assay [4] deals with HOP-92.
Assay [5] has as its system HT-29.
For assay [6], the system named is IGROV-1.
Assay [7] concerns KM12.
The subject of assay [8] is NCI-H23.
Assay [9] concerns SF-539.
Assay [10] has as its system SK-OV-3.
In assay [11] the test system is SN12C.
The test system of assay [12] is SNB-75.
Assay [13] deals with SR.
The test system of assay [14] is SW-620.
The test system of assay [15] is TK-10.
In assay [16] the test system is UACC-257.
Assay [17] has as its system UACC-62.
Assay [18] has as its system DU-145.
Assay [19] has as its system PC-3.

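Growth conditions: 96-well plates. Treatment: test compound, 48 hours, 5 concentrations. Analysis: linear interpolation between bracketing concentrations; unreached endpoints set to highest concentration. GI50: concentration for 50% inhibition of growth.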 Active and inactive are the calls of the source. Cut-off read from the data, not from the text of the source: active = GI50 up to about 1.1 µM and inactive = higher.

For the molecule `CC(C)Cc1ccc(C(C)/C=C2\CCC(CN3CCCC3)C2=O)cc1` (stereo unspecified), the GI50 was 18.3 µM (inactive) in assay [1]; 4.06 µM in [2]; 1.89 µM (inactive) in assay [3]; 19.1 µM (inactive) in assay [4]; 8.09 µM (inactive) in [5]; 5.74 µM (inactive) in assay [6]. The GI50 in assay [7] was 2.77 µM (inactive); in [8], 11.5 µM (inactive); in [9], 5.81 µM (inactive); in assay [10], 19.6 µM (inactive); in assay [11], 3.97 µM (inactive); in assay [12], 14.1 µM (inactive). Besides, the GI50 in assay [13] is 1.76 µM (inactive); in assay [14] it was 7.18 µM (inactive); in [15], 3.69 µM (inactive); in [16], 16.7 µM (inactive); in [17], 15.7 µM (inactive).

For `CCN(CC)CCN(C)CC(C)(C)C(=O)/C=C/c1ccccc1`, the GI50 is 16.4 µM (inactive) in [1]; 12.5 µM in [2]; 6.22 µM (inactive) in [3]; 3.99 µM (inactive) in assay [4]; 11.2 µM (inactive) in [5]; 16.7 µM (inactive) in assay [6]. For the same molecule, the GI50 in [7] is 12.1 µM (inactive); in [8], 12.6 µM (inactive); in [9] it was 5.01 µM (inactive); in assay [10], 12.6 µM (inactive); in assay [11] it was 10 µM (inactive); in [12] it was 4.36 µM (inactive). Also, the GI50 in [13] is 10.5 µM (inactive); in assay [14], 11.5 µM (inactive); in assay [15], 22.2 µM (inactive); in assay [16] it was 11.7 µM (inactive); in assay [17], 12.7 µM (inactive).

Regarding `CCOC(=O)NC(=O)c1c[nH]c(=O)[nH]c1=O`, the GI50 in assay [1] was > 100 µM (inactive); in assay [2], above 100 µM; in assay [3], > 100 µM (inactive); in [4], > 100 µM (inactive); in assay [5], > 100 µM (inactive); in assay [6], > 100 µM (inactive). Moreover, the GI50 in assay [7], in [8], in assay [9], in assay [10], in assay [11] and in [12] was > 100 µM (inactive) each time. Also, the GI50 in assay [13], in assay [14], in [15], in [16] and in assay [17] was > 100 µM (inactive) each time.

`COC(=O)C1=C(C(=O)OC)C2(OC(C)=O)c3ccccc3-c3ccccc3C12` (stereo unspecified): the GI50 in [1] was 17.3 µM (inactive); in [2], 5.26 µM; in [3] it was 4.85 µM (inactive); in assay [4], 1.77 µM (inactive); in assay [5] it was 5.47 µM (inactive); in [6], 3.74 µM (inactive). The GI50 was 12.5 µM (inactive) in [7]; 11.5 µM (inactive) in [8]; 17.2 µM (inactive) in assay [9]; 15.5 µM (inactive) in assay [10]; 4.89 µM (inactive) in assay [11]; 11.7 µM (inactive) in assay [12]. Also, the GI50 in assay [13] was 2.33 µM (inactive); in assay [14], 1.66 µM (inactive); in assay [15], 3.6 µM (inactive); in assay [16] it was 5.96 µM (inactive); in assay [17], 11 µM (inactive).

For the molecule `COc1ccc2c(c1)CC1c3c(ccc(OC)c3O)CC2N1C` (stereo unspecified), the GI50 in assay [1] was 57.3 µM (inactive); in [2] it was 34.4 µM; in [3], 16.2 µM (inactive); in [4] it was 28.1 µM (inactive); in assay [5] it was 22.9 µM (inactive); in assay [6] it was 44.1 µM (inactive). Further, the GI50 was 28.2 µM (inactive) in [7]; 43.6 µM (inactive) in assay [8]; 24.7 µM (inactive) in [9]; 62.7 µM (inactive) in [10]; 43 µM (inactive) in assay [11]; 38.3 µM (inactive) in assay [12]. Besides, the GI50 was 15.3 µM (inactive) in assay [13]; 21.5 µM (inactive) in assay [14]; 64.4 µM (inactive) in assay [15]; 23.1 µM (inactive) in assay [16]; 47.4 µM (inactive) in [17].

For `CN(CC#N)C1CCCC[C@H]1O` (stereo partly specified), the GI50 in [1] is > 100 µM (inactive); in assay [2], above 100 µM; in [3], > 100 µM (inactive); in assay [4], > 100 µM (inactive); in assay [5] it was > 100 µM (inactive); in assay [6] it was > 100 µM (inactive). Moreover, the GI50 in assay [7], in [8], in [9], in assay [10], in assay [11] and in assay [12] was > 100 µM (inactive) throughout. Moreover, the GI50 in assay [13] is 46.6 µM (inactive); in [14], > 90.4 µM (inactive); in assay [15], > 100 µM (inactive); in assay [16], > 100 µM (inactive); in assay [17], > 100 µM (inactive).

Regarding `CCOC(=O)C1(C)CCC(C(C(=O)O)C(=O)O)CC1=O` (stereo unspecified), the GI50 in [1] is > 100 µM (inactive); in [2], above 100 µM; in assay [3] it was > 100 µM (inactive); in [4], > 100 µM (inactive); in assay [5] it was > 100 µM (inactive); in assay [6], > 100 µM (inactive). Further, the GI50 in [7], in assay [9], in assay [10], in assay [11], in assay [12] and in [13] was > 100 µM (inactive) each time. Further, the GI50 in assay [14], in assay [15], in assay [16] and in [17] was > 100 µM (inactive) each time.

For the molecule `C[Si](C)(C)C(Sc1ccccc1)(Sc1ccccc1)Sc1ccccc1`, the GI50 in assay [1] is 39.3 µM (inactive); in assay [2], 50.5 µM; in [3], 35.2 µM (inactive); in assay [4] it was 17.1 µM (inactive); in [7], 60.3 µM (inactive); in assay [8], 22.3 µM (inactive). Moreover, the GI50 was > 100 µM (inactive) in assay [9]; > 100 µM (inactive) in assay [10]; > 100 µM (inactive) in [11]; 40.5 µM (inactive) in assay [12]; 35.7 µM (inactive) in assay [13]; 46.7 µM (inactive) in assay [14]. Also, the GI50 in assay [15] was > 100 µM (inactive); in assay [16] it was 52.5 µM (inactive); in assay [17], 26.4 µM (inactive).

On to `CN(C)c1ccc(/C=c2\sc3nnc(Cc4ccccc4)n3c2=O)cc1`, for which the GI50 was 37 µM (inactive) in assay [1]; 20.2 µM in assay [2]; > 10 µM (inactive) in assay [3]; > 100 µM (inactive) in [4]; 62.5 µM (inactive) in [5]; > 10 µM (inactive) in [6]. Also, the GI50 in assay [7], in [8], in assay [9], in assay [10], in assay [11] and in [12] was > 10 µM (inactive) throughout. Moreover, the GI50 was > 10 µM (inactive) in [13]; 13.7 µM (inactive) in assay [14]; > 10 µM (inactive) in assay [15]; > 10 µM (inactive) in [16]; > 10 µM (inactive) in assay [17].

Consider `CC(=O)N/C(=C\c1cccc([N+](=O)[O-])c1)c1nc2ccc3c(c2[nH]1)C(=O)c1ccccc1C3=O`, for which the GI50 in [1] is 26.6 µM (inactive); in assay [2], 13.9 µM; in assay [3], 2.76 µM (inactive); in assay [4], > 50.4 µM (inactive); in [5], > 100 µM (inactive); in assay [6], 10.4 µM (inactive). Further, the GI50 in [7] is 7.57 µM (inactive); in [8], 39.8 µM (inactive); in [9] it was 42 µM (inactive); in [10] it was 13.6 µM (inactive); in [11] it was 21 µM (inactive); in [12] it was 21.3 µM (inactive). Further, the GI50 was 6.97 µM (inactive) in assay [13], 31.9 µM (inactive) in assay [14], > 56 µM (inactive) in assay [15] and > 49.8 µM (inactive) in assay [17].

As for `CCC1OC2C(CC=C(C)C)=C3OC(C)(O)C(C)(CC)C(O)C3=C3OC(=O)C=C1C32` (stereo unspecified), the GI50 is 37.6 µM (inactive) in assay [1]; 50.5 µM (inactive) in [18]; 33 µM in assay [2]; 17.3 µM (inactive) in assay [4]; 34.7 µM (inactive) in [7]; 21.6 µM (inactive) in assay [8]. Further, the GI50 was 68.5 µM (inactive) in assay [19]; 15.8 µM (inactive) in assay [9]; > 100 µM (inactive) in [10]; 39.4 µM (inactive) in assay [14]; 70.6 µM (inactive) in assay [15]; 33.9 µM (inactive) in assay [16]. The GI50 in assay [17] was 26.7 µM (inactive).

As to `CC(C)N(C(=O)c1cccc(C(=O)N(C(C)C)C(C)C)c1)C(C)C`, the GI50 in assay [1] was > 100 µM (inactive); in assay [2], above 100 µM; in assay [3] it was > 100 µM (inactive); in assay [4], > 100 µM (inactive); in assay [5], > 100 µM (inactive); in [6], > 100 µM (inactive). In addition, the GI50 in assay [7], in assay [8], in [9], in assay [10], in assay [11] and in assay [12] was > 100 µM (inactive) each time. Further, the GI50 in [13] is 20.1 µM (inactive); in assay [14], 12.8 µM (inactive); in [15] it was > 100 µM (inactive); in [16] it was > 100 µM (inactive); in assay [17], > 100 µM (inactive).
